Data taken from patent US8906909B2 (Curis, Inc., priority 2009, dated 2014).

Key:
[1] = tested on: HDACs (HeLa cell nuclear extracts); assay: HDAC enzymatic activity, Biomol Color de Lys system; type: biochemical
In short: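 IC50 from sigmoidal dose-response fits of fluorescence (Ex 350–380, Em 440–460 nm). Compounds in DMSO dilution series incubated 1 h at 25 °C with HeLa nuclear extract HDACs and colorimetric substrate, pH 8.0 Tris/Cl buffer with NaCl, KCl, MgCl2, before developer termination.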

[2] = molecular target: T1, PI3Kα (p110α/p85α) (Homo sapiens, UniProt P42336); assay: PI3Kα fluorescence polarization assay; type: biochemical; conditions: 10 μM ATP
T1 construct: N-terminal histidine-tagged recombinant full-length human p110α; His tag (N); made in house; host or cells: Baculovirus-infected Sf9 insect cells
T1 sequence (P42336 whole entry): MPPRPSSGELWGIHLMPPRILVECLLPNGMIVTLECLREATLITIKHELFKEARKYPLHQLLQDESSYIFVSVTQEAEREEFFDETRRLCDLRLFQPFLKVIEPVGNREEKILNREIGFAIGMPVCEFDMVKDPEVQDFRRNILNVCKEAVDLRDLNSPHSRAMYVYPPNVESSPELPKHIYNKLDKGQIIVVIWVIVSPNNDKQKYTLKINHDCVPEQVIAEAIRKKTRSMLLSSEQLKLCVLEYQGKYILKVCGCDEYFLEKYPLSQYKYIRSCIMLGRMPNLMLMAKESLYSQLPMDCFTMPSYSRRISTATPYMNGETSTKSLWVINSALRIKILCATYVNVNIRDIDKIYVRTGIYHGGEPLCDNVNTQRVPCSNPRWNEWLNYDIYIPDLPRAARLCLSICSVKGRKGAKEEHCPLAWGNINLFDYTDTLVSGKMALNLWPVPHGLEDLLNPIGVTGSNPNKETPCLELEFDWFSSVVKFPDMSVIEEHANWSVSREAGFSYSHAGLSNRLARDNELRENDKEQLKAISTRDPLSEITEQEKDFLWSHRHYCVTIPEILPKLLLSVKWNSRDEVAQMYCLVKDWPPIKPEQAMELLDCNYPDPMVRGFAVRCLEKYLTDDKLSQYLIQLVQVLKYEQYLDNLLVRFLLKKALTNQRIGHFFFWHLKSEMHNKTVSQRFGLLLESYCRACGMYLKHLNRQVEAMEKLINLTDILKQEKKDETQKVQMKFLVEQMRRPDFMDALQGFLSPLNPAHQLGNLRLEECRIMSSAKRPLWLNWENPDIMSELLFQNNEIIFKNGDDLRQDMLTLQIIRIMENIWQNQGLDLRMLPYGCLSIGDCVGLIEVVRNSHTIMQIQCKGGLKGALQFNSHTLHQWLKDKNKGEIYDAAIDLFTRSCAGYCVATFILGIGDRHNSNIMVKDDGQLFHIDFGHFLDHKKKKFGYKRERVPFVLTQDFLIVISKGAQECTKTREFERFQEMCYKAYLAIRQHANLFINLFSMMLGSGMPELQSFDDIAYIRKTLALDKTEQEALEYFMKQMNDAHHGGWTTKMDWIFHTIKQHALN
T1 sequence (P27986 whole entry partner): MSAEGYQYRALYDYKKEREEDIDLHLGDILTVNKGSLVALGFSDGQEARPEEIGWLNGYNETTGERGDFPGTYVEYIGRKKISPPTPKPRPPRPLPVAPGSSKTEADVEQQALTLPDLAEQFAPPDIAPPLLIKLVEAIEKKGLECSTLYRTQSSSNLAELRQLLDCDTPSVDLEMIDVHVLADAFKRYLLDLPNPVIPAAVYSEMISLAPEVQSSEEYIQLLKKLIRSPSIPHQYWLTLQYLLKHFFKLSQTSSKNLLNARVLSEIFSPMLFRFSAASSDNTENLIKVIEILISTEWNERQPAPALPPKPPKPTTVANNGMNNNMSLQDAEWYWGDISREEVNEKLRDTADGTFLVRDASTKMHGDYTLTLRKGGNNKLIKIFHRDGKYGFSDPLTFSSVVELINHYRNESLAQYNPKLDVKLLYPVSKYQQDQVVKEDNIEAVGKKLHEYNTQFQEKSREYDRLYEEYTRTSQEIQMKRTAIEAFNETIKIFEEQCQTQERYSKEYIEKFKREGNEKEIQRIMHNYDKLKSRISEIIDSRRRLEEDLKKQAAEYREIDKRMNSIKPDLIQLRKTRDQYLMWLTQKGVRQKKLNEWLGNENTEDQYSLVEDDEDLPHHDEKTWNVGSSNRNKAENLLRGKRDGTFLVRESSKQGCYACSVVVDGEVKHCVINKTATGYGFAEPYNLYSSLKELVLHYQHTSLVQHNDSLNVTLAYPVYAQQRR
Method: (a) An In Vitro Assay which Determines the Ability of a Test Compound to Inhibit PI3Kα.
Activity of PI3Kα was measured using fluorescence polarization assay. PI3Kα, a complex of N-terminal histidine-tagged recombinant full-length human p110α and untagged recombinant full length human p85α were coexpressed in a Baculovirus infected Sf9 cell expression system. (GenBank Accession No. for p110α, U79143; for p85α, XM—043865). The proteins are purified by one-step affinity chromatography using glutathione-agarose. A competition assay was performed to measure the amount of PIP3 generated from PIP2 in the presence of purified recombinant PI3Kα (p110α/p85α). PI3K a was incubated with 10 μM PIP2 substrate in the reaction buffer (20 mM HEPES, pH 7.5, 10 mM NaCl, 4 mM MgCl2, 2 mM DTT, 10 μM ATP and 1% DMSO) for 1 hour at 30° C. The reaction product was then mixed with a PIP3 detector protein and the fluorescent PIP3 probe. Polarization (mP) values decrease as fluorescent probe binding to the PIP3 detector is displaced by PIP3 produced by enzymatic activity and the amount of unbound fluorescent probe in the mixture increases. Polarization degrees (mP) value was determined using microplate reader with background subtraction.

[3] = tested on: L1210 cells; assay: Cell proliferation assay Method B, L1210; type: cell-based; conditions: Mouse LL, 72 hours, read-out: antiproliferative activity IC50, L1210
Method: (§1) Cancer cell lines were plated at 5,000 to 10,000 per well in 96-well flat bottomed plates with various concentration of compounds. The cells were incubated with compounds for 72 hours in the presence of 0.5% of fetal bovine serum. Growth inhibition was accessed by adenosine triphosphate (ATP) content assay using Promega CellTiter-Glo kit. Promega CellTiter-Glo kit is an ATP monitoring system based on firefly luciferase. Briefly, 16 μl of mammalian cell lysis and substrate solution was added to 84 μl of culture medium per well to lyse the cells and stabilize the ATP. The mixture was shaken and incubated for 30 minutes and subsequently the luminescence was measured.

[4] = tested on: Raji cells; assay: Cell proliferation assay Method B, Raji; type: cell-based; conditions: Homo sapiens, NHL, 72 hours, read-out: antiproliferative activity IC50, Raji
Method: as §1

[5] = tested on: U937 cells; assay: Cell proliferation assay Method B, U937; type: cell-based; conditions: Homo sapiens, U-937, AML, 72 hours, read-out: antiproliferative activity IC50, U937
Method: as §1

[6] = tested on: HL-60 cells; assay: Cell proliferation assay Method B, HL-60; type: cell-based; conditions: Homo sapiens, AML, 72 hours, read-out: antiproliferative activity IC50, HL-60
Method: as §1

[7] = tested on: RPMI-8226 cells; assay: Cell proliferation assay Method B, RPMI-8226; type: cell-based; conditions: Homo sapiens, Multiple Myeloma, Method B, 72 hours, read-out: antiproliferative activity IC50, RPMI-8226
Method: as §1

[8] = tested on: MV-4-11 cells; assay: Cell proliferation assay Method B, MV-4-11; type: cell-based; conditions: Homo sapiens, MV4-11, AML, 72 hours, read-out: antiproliferative activity IC50, MV-4-11
Method: as §1

[9] = tested on: K562 cells; assay: Cell proliferation assay Method B, K562; type: cell-based; conditions: Homo sapiens, CML, 72 hours, read-out: antiproliferative activity IC50, K562
Method: as §1

[10] = tested on: Daudi cells; assay: Cell proliferation assay Method B, Daudi; type: cell-based; conditions: Homo sapiens, NHL, 72 hours, read-out: antiproliferative activity IC50, Daudi
Method: as §1

[11] = tested on: ARH77 cells; assay: Cell proliferation assay Method B, ARH77; type: cell-based; conditions: Homo sapiens, ARH-77, Multiple Myeloma, 72 hours, read-out: antiproliferative activity IC50, ARH77
Method: as §1

[12] = tested on: MOLT-4 cells; assay: Cell proliferation assay Method B, MOLT-4; type: cell-based; conditions: Homo sapiens, ALL, 72 hours, read-out: antiproliferative activity IC50, MOLT-4
Method: as §1

[13] = tested on: SKBr3 cells; assay: Cell proliferation assay Method B, SKBr3; type: cell-based; conditions: Homo sapiens, SK-BR-3, Breast, 72 hours, read-out: antiproliferative activity IC50, SKBr3
Method: as §1

[14] = tested on: P388 D1 cells; assay: Cell proliferation assay Method B, P388 D1; type: cell-based; conditions: P388D1, Mouse Lymphoma, 72 hours, read-out: antiproliferative activity IC50, P388 D1
Method: as §1

[15] = tested on: MCF-7 cells; assay: Cell proliferation assay Method B, MCF-7; type: cell-based; conditions: Homo sapiens, MCF7, Breast, 72 hours, read-out: antiproliferative activity IC50, MCF-7
Method: as §1

[16] = tested on: T47D cells; assay: Cell proliferation assay Method B, T47D; type: cell-based; conditions: Homo sapiens, Breast, 72 hours, read-out: antiproliferative activity IC50, T47D
Method: as §1

[17] = tested on: MDA-MB-453 cells; assay: Cell proliferation assay Method B, MDA-MB-453; type: cell-based; conditions: Homo sapiens, Breast, 72 hours, read-out: antiproliferative activity IC50, MDA-MB-453
Method: as §1

[18] = tested on: Pfeiffer cells; assay: Cell proliferation assay Method B, Pfeiffer; type: cell-based; conditions: Homo sapiens, NHL, 72 hours, read-out: antiproliferative activity IC50, Pfeiffer
Method: as §1

[19] = tested on: HCC1806 cells; assay: Cell proliferation assay Method B, HCC1806; type: cell-based; conditions: Homo sapiens, Breast, 72 hours, read-out: antiproliferative activity IC50, HCC1806
Method: as §1

[20] = tested on: THP-1 cells; assay: Cell proliferation assay Method B, THP-1; type: cell-based; conditions: Homo sapiens, AML, 72 hours, read-out: antiproliferative activity IC50, THP-1
Method: as §1

[21] = tested on: ZR-75-1 cells; assay: Cell proliferation assay Method B, ZR-75-1; type: cell-based; conditions: Homo sapiens, Breast, 72 hours, read-out: antiproliferative activity IC50, ZR-75-1
Method: as §1

[22] = tested on: BT474 cells; assay: Cell proliferation assay Method B, BT474; type: cell-based; conditions: Homo sapiens, BT-474; Breast; Method B; 72 hours; read-out: antiproliferative activity IC50, BT474
Method: as §1

[23] = tested on: MDA-MB-361 cells; assay: Cell proliferation assay Method B, MDA-MB-361; type: cell-based; conditions: Homo sapiens, Breast, 72 hours, read-out: antiproliferative activity IC50, MDA-MB-361
Method: as §1

[24] = tested on: SUP-B15 cells; assay: Cell proliferation assay Method B, SUP-B15; type: cell-based; conditions: Homo sapiens, ALL, 72 hours, read-out: antiproliferative activity IC50, SUP-B15
Method: as §1

[25] = tested on: MDA-MB-231 cells; assay: Cell proliferation assay Method B, MDA-MB-231; type: cell-based; conditions: Homo sapiens, Breast, Method B, 72 hours, read-out: antiproliferative activity IC50, MDA-MB-231 (second listing, r32)
Method: as §1

[26] = tested on: UACC-893 cells; assay: Cell proliferation assay Method B, UACC-893; type: cell-based; conditions: Homo sapiens, Breast, 72 hours, read-out: antiproliferative activity IC50, UACC-893
Method: as §1

[27] = tested on: MDA-MB-468 cells; assay: Cell proliferation assay Method B, MDA-MB-468; type: cell-based; conditions: Homo sapiens, Breast, Method B, 72 hours, read-out: antiproliferative activity IC50, MDA-MB-468
Method: as §1

[28] = tested on: HCC1500 cells; assay: Cell proliferation assay Method B, HCC1500; type: cell-based; conditions: Breast, 72 hours, read-out: antiproliferative activity IC50, HCC1500
Method: as §1

[29] = tested on: MEG-01 cells; assay: Cell proliferation assay Method B, MEG-01; type: cell-based; conditions: Homo sapiens, CML, 72 hours, read-out: antiproliferative activity IC50, MEG-01
Method: as §1

| SMILES | IC50 [1] | IC50 [2] | melting point | IC50 [3] | IC50 [4] | IC50 [5] | IC50 [6] | IC50 [7] | IC50 [8] | IC50 [9] | IC50 [10] | IC50 [11] | IC50 [12] | IC50 [13] | IC50 [15] | IC50 [16] | IC50 [19] | IC50 [21] | IC50 [22] | IC50 [23] | also measured |
| --- | --- | --- | --- | --- | --- | --- | --- | --- | --- | --- | --- | --- | --- | --- | --- | --- | --- | --- | --- | --- | --- |
| CS(=O)(=O)N1CCN(Cc2cc3nc(-c4cccc5c4cnn5CCCCC(=O)NO)nc(N4CCOCC4)c3s2)CC1 [Compound 3, N-hydroxy-5-(4-(6-((4-(methylsulfonyl)piperazin-1-yl)methyl)-4-morpholinothieno[3,2-d]pyrimidin-2-yl)-1H-indazol-1-yl)pentanamide] | < 100 nM | > 10000 nM | 139 to 143 °C |  |  |  |  |  |  |  |  |  |  |  |  |  |  |  |  |  |  |
| CS(=O)(=O)N1CCN(Cc2cc3nc(-c4cccc5c4cnn5CCCCCC(=O)NO)nc(N4CCOCC4)c3s2)CC1 [Compound 4] | < 100 nM | > 10000 nM | 186 to 187 °C |  |  |  |  |  |  |  |  |  |  |  |  |  |  |  |  |  |  |
| CNc1ccc(-c2nc(N3CCOCC3)c3sc(CN(C)c4ncc(C(=O)NO)cn4)cc3n2)cn1 [Compound 111, N-Hydroxy-2-(methyl((2-(6-(methylamino)pyridin-3-yl)-4-morpholinothieno[3,2-d]pyrimidin-6-yl)methyl)amino)pyrimidine-5-carboxamide] | < 100 nM |  |  | < 10 nM | 10 to 100 nM | < 10 nM | < 10 nM | < 10 nM | < 10 nM | 10 to 100 nM | < 10 nM | < 10 nM | < 10 nM | 10 to 100 nM | < 10 nM | < 10 nM | 10 to 100 nM | 10 to 100 nM | < 10 nM | < 10 nM | IC50 [14]: < 10 nM; IC50 [17]: < 10 nM; IC50 [18]: < 10 nM; IC50 [20]: 10 to 100 nM |
| COc1ccc(-c2nc(N3CCOCC3)c3sc(CN(C)c4ncc(C(=O)NO)cn4)cc3n2)cn1 [Compound 236, N-Hydroxy-2-(((2-(6-methoxypyridin-3-yl)-4-morpholinothieno[3,2-d]pyrimidin-6-yl)methyl)(methyl)amino)pyrimidine-5-carboxamide] | < 100 nM |  |  | 10 to 100 nM | 10 to 100 nM | < 10 nM | < 10 nM | < 10 nM | < 10 nM | 100 to 1000 nM | 10 to 100 nM | 10 to 100 nM | < 10 nM | 10 to 100 nM | < 10 nM | 10 to 100 nM | 10 to 100 nM | 10 to 100 nM | < 10 nM | < 10 nM | IC50 [24]: < 10 nM; IC50 [25]: 10 to 100 nM; IC50 [26]: 10 to 100 nM; IC50 [27]: 10 to 100 nM; IC50 [14]: 10 to 100 nM; IC50 [28]: < 10 nM; IC50 [17]: < 10 nM; IC50 [18]: < 10 nM; IC50 [20]: 10 to 100 nM; IC50 [29]: 10 to 100 nM |
| COc1ncc(-c2nc(N3CCOCC3)c3sc(CN(C)c4ncc(C(=O)NO)cn4)cc3n2)cn1 [Compound 261, N-Hydroxy-2-(((2-(2-methoxypyrimidin-5-yl)-4-morpholinothieno[3,2-d]pyrimidin-6-yl)methyl)(methyl)amino)pyrimidine-5-carboxamide] | < 100 nM |  | 215 to 220 °C |  |  |  |  |  |  |  |  |  |  | 10 to 100 nM | < 10 nM | < 10 nM | < 10 nM | < 10 nM | < 10 nM | < 10 nM | IC50 [28]: < 10 nM |
